Source: patent US11532406B2, “High specific activity preparation of F-18 tetrafluoroborate” (Mayo Foundation for Medical Education and Research, priority 2016, dated 2022)
Values joined by “and” are separate entries in the source; they are usually repeats but may differ in a detail not shown here. Identical values can stand only once.

Assay: Radiation dosimetry estimation (organ residence times, OLINDA)
Format: in vivo, human
Conditions: for Residence Time, Bladder: bladder emptying model, 3.5 h voiding period; for Estimated absorbed radiation dose, Urinary Bladder Wall: bladder voiding interval of 3.5 h
Description: Radiation dosimetry estimates were calculated from organ residence times using OLINDA software (Ver. 1.1), assuming a bladder voiding interval of 3.5 h. Gender-specific organ masses for the conversion of SUV to disintegrations per organ per unit radioactivity administered (Bq-hr/Bq) were taken from Schlein et al. (15).
Bladder residence time was estimated by the bladder emptying model within the OLINDA software, assuming a 3.5 h bladder voiding period. The dose-critical organ is thyroid, with dose estimates of 0.26 and 0.36 mSv/MBq in males and females, respectively. […] Effective dose was higher in females (0.065 mSv/MBq) relative to males (0.036 mSv/MBq).

Effective Dose (females): 0.065 mSv/MBq and 0.064 mSv/MBq | Estimated absorbed radiation dose, Adrenals (females): 0.012 mSv/MBq | Estimated absorbed radiation dose, Brain (females): 0.005 mSv/MBq | Estimated absorbed radiation dose, Breasts (females): 0.028 mSv/MBq | Estimated absorbed radiation dose, Gallbladder Wall (females): 0.022 mSv/MBq | Estimated absorbed radiation dose, Heart Wall (females): 0.030 mSv/MBq | Estimated absorbed radiation dose, Kidneys (females): 0.052 mSv/MBq | Estimated absorbed radiation dose, Liver (females): 0.033 mSv/MBq | Estimated absorbed radiation dose, Lower Large Intestine Wall (females): 0.015 mSv/MBq | Estimated absorbed radiation dose, Lungs (females): 0.014 mSv/MBq | Estimated absorbed radiation dose, Muscle (females): 0.011 mSv/MBq | Estimated absorbed radiation dose, Osteogenic Cells (females): 0.009 mSv/MBq | Estimated absorbed radiation dose, Ovaries (females): 0.020 mSv/MBq | Estimated absorbed radiation dose, Pancreas (females): 0.043 mSv/MBq | Estimated absorbed radiation dose, Red Marrow (females): 0.008 mSv/MBq | Estimated absorbed radiation dose, Skin (females): 0.004 mSv/MBq | Estimated absorbed radiation dose, Small Intestine Wall (females): 0.066 mSv/MBq | Estimated absorbed radiation dose, Spleen (females): 0.047 mSv/MBq | Estimated absorbed radiation dose, Stomach Wall (females): 0.184 mSv/MBq | Estimated absorbed radiation dose, Thymus (females): 0.005 mSv/MBq | Estimated absorbed radiation dose, Thyroid (females): 0.36 mSv/MBq | Estimated absorbed radiation dose, Total Body (females): 0.011 mSv/MBq | Estimated absorbed radiation dose, Upper Large Intestine Wall (females): 0.109 mSv/MBq | Estimated absorbed radiation dose, Uterus (females): 0.022 mSv/MBq | Residence Time, Bone (females): 3.1 ± 0.3 min | Residence Time, Brain (females): 1.3 ± 0.2 min | Residence Time, Breast (females): 2.8 ± 0.9 min | Residence Time, Gallbladder (females): 0.09 ± 0.04 min | Residence Time, Intestines (females): 13 ± 7 min | Residence Time, Kidney (females): 3.9 ± 0.8 min | Residence Time, Liver (females): 10 ± 2 min | Residence Time, Lung (females): 2.4 ± 0.2 min | Residence Time, Muscle (females): 26 ± 8 min | Residence Time, Myocardium (females): 1.8 ± 0.3 min | Residence Time, Pancreas (females): 0.58 ± 0.08 min | Residence Time, Parotid (females): 3.3 ± 1.2 min | Residence Time, Spleen (females): 1.6 ± 0.2 min | Residence Time, Stomach (females): 24 ± 12 min | Residence Time, Thyroid (females): 2.3 ± 0.9 min | Residence Time, Bladder (females): 19 ± 4 min | Estimated absorbed radiation dose, Urinary Bladder Wall (females): 0.22 mSv/MBq | Effective Dose (males): 0.036 mSv/MBq | Estimated absorbed radiation dose, Adrenals (males): 0.008 mSv/MBq | Estimated absorbed radiation dose, Brain (males): 0.004 mSv/MBq | Estimated absorbed radiation dose, Breasts (males): 0.002 mSv/MBq | Estimated absorbed radiation dose, Gallbladder Wall (males): 0.012 mSv/MBq | Estimated absorbed radiation dose, Heart Wall (males): 0.024 mSv/MBq | Estimated absorbed radiation dose, Kidneys (males): 0.049 mSv/MBq | Estimated absorbed radiation dose, Liver (males): 0.021 mSv/MBq | Estimated absorbed radiation dose, Lower Large Intestine Wall (males): 0.009 mSv/MBq | Estimated absorbed radiation dose, Lungs (males): 0.009 mSv/MBq | Estimated absorbed radiation dose, Muscle (males): 0.008 mSv/MBq | Estimated absorbed radiation dose, Osteogenic Cells (males): 0.008 mSv/MBq | Estimated absorbed radiation dose, Pancreas (males): 0.034 mSv/MBq | Estimated absorbed radiation dose, Red Marrow (males): 0.005 mSv/MBq | Estimated absorbed radiation dose, Skin (males): 0.003 mSv/MBq | Estimated absorbed radiation dose, Small Intestine Wall (males): 0.027 mSv/MBq | Estimated absorbed radiation dose, Spleen (males): 0.033 mSv/MBq | Estimated absorbed radiation dose, Stomach Wall (males): 0.076 mSv/MBq | Estimated absorbed radiation dose, Testes (males): 0.005 mSv/MBq | Estimated absorbed radiation dose, Thymus (males): 0.004 mSv/MBq | Estimated absorbed radiation dose, Thyroid (males): 0.26 mSv/MBq | Estimated absorbed radiation dose, Total Body (males): 0.008 mSv/MBq | Estimated absorbed radiation dose, Upper Large Intestine Wall (males): 0.045 mSv/MBq | Residence Time, Bone (males): 4.6 ± 1.3 min | Residence Time, Brain (males): 1.2 ± 0.4 min | Residence Time, Gallbladder (males): 0.06 ± 0.03 min | Residence Time, Intestines (males): 5.7 ± 1.9 min | Residence Time, Kidney (males): 4.2 ± 1.2 min | Residence Time, Liver (males): 8.3 ± 3.9 min | Residence Time, Lung (males): 2.1 ± 0.7 min | Residence Time, Muscle (males): 36 ± 14 min | Residence Time, Myocardium (males): 2.1 ± 0.6 min | Residence Time, Pancreas (males): 0.7 ± 0.3 min | Residence Time, Parotid (males): 1.7 ± 1.1 min | Residence Time, Spleen (males): 1.5 ± 0.4 min | Residence Time, Stomach (males): 11 ± 5 min | Residence Time, Thyroid (males): 2.0 ± 0.7 min | Residence Time, Bladder (males): 17 ± 2 min | Estimated absorbed radiation dose, Urinary Bladder Wall (males): 0.14 mSv/MBq
SMILES: F[B-](F)(F)[18F] [^18F-TFB, ^18F-tetrafluoroborate]
